Columns and labels:
HEK293 cells = experiment: Protection against thapsigargin (TG)-induced cell death, HEK293; type: cell-based, human; conditions: compound 20 μM; thapsigargin 15 μM; 24 hrs
Summary of the method: (§1)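 Cells pretreated with 20 μM compound for 2 h, then thapsigargin (15 μM HEK293, 1 μM N2a) for 24 h to induce ER stress. Viability by AlamarBlue fluorescence at 2 h as % RFU of control, binned A–D by % cell rescue.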

N2a cells = experiment: Protection against thapsigargin (TG)-induced cell death, N2a; type: cell-based, mouse; conditions: compound 20 μM; thapsigargin 1 μM; 24 hrs
Summary of the method: as §1

Ca^2+-ATPase = experiment: Ca2+-ATPase assay, microsomal preparations from HEK 293 cells; type: biochemical, human
Procedure: A Ca^2+-ATPase assay was performed using microsomal preparations from HEK 293 cells at a series of calcium concentrations corresponding to the physiological range, relative to controls. The ATP hydrolysis rate was measured over a range of calcium concentrations in the presence of test compounds using an NADH-linked, enzyme-coupled ATPase assay adapted for 96-well microplates, with Vmax determined by fitting the ATPase calcium-dependence to the Hill function. […] CaCl2 was added to set free [Ca^2+] to the specific values.

ob/ob mice = experiment: Effect on the level of blood glucose in ob/ob mice; type: in vivo, mouse; conditions: for blood glucose: 10 or 50 mg/kg i.p. once a day for 5 days, as early as day 2; for glucose level after the last injection: for over a week after the last injection
Procedure: Fasting glucose was measured at baseline and 10 hours after the administration of the test compound. Glucose levels were measured in blood samples drawn from the tail vein using the OneTouch Ultra 2 Meter (LifeScan, Inc.).

human islet microtissues = experiment: Protection of human pancreatic islets under cytokine stress; type: cell-based; conditions: 168 h, compound 5 μM, cytokine cocktail IL1-β, IFN-γ, TNF-α, 7 days, read-out: increase in viability over baseline (total ATP content)
Procedure: Human pancreatic islet microtissues treated with cytokines were used to model the conditions of Type 1 Diabetes in vitro. This study tested the effects of compounds on […] viability in human islets under cytokine stress. The model consisted of human islet microtissues from an HLA-A2 positive donor grown and separated in a 96-well plate (1 microtissue per well). The microtissues were treated for 7 days with a cocktail of cytokines (IL1-β 5 ng/mL, IFN-γ 25 ng/mL, TNF-α 25 ng/mL) and compound (5 μM) or vehicle. There were 6 microtissues treated per compound or vehicle. At day 7, the total ATP content was measured using CellTiter-Glo (Promega).

livers of ob/ob mice = experiment: Reduction of ER stress markers in liver of ob/ob mice (western blot); type: in vivo, mouse; conditions: 50 mg/kg
Procedure: Proteins were analyzed by western blot and quantified. Bands were normalized to GAPDH and expressed as 100% of ob/ob+vehicle (ob). Liver tissues were homogenized with a bench-top homogenizer in an ice-cold tissue lysis buffer. The homogenized samples were centrifuged at 8,000×g for 20 min at 4° C. The lipid layer was removed and the supernatant was transferred into Eppendorf tubes. After centrifuging at 16,000×g for 60 min at 4° C., the supernatants were normalized to the same concentration and boiled at 100° C. in 1× Laemmli buffer for 5 min. The lysate was cooled to room temperature before loading for Western blot analysis. Protein lysate was resolved on SDS polyacrylamide gel and transferred onto PVDF membrane at a voltage of 100 V for 2 hrs at 4° C. The membrane was blocked in 10% blocking reagent and incubated overnight with a primary antibody in Tris-buffered saline solution/Tween (TBST)/10% blocking reagent at 4° C. After incubation, the membrane was washed three times in TBST for 20 min and incubated at room temperature with a secondary antibody in TBST/10% blocking reagent for 1 hr. The membrane was washed three times for 20 min and developed using a chemiluminescence assay system. To strip a membrane for another primary antibody, the membrane was agitated at 50° C. for 20 min in a box with stripping buffer (2% SDS and 100 mM 2-mercaptoethanol in TBS, pH 7.5). […]

[1] = Pharmacokinetics in CD-1 mice; type: in vivo, mouse; conditions: for F / AUC / Cmax / half-life: CD-1 mice; for F: 10 mg/kg P.O. vs 2 mg/kg i.v.; for AUC / Cmax / half-life: mouse, plasma, 2 mg/kg i.v. or 10 mg/kg P.O.
Summary of the method: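 CD-1 mice (triplicate) dosed 2 mg/kg i.v. or 10 mg/kg oral gavage, formulated 1 mg/mL in DMSO/Tween 80/water (10/10/80). EDTA plasma sampled 0.25–24 h, acetonitrile-precipitated and quantified by positive-ion MRM LC/MS/MS against internal standard; PK parameters fitted from concentration–time data.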

| Structure (SMILES) | HEK293 Cells (TG-induced) cell rescue (HEK293 cells) | N2a Cells (TG-induced) cell rescue (N2a cells) | increase in baseline ATPase activity (Ca^2+-ATPase) | blood glucose (ob/ob mice) | glucose level after the last injection (ob/ob mice) | viability at 5 µM (human islet microtissues) [%] | phosphorylation of PERK and elF2α (livers of ob/ob mice) | F [1] [%] | AUC [1] [µg·h/mL] | Cmax [1] [µM] | half-life [1] [min] | pharmacokinetic properties as measured by CMAX, AUC and F (%) ([1]; compared with other SERCA modulators, see Table 6) |
| --- | --- | --- | --- | --- | --- | --- | --- | --- | --- | --- | --- | --- |
| Cc1ccc2cccc(NC(=O)c3ccc(OC(C)C)cc3)c2n1 [Compound A12, 4-Isopropoxy-N-(2-methylquinolin-8-yl)benzamide] | A (A represents a value greater than 50% cell rescue) | B (B represents a value between 10% to 50% cell rescue) | 10-15% | significantly lowered | identical to lean mice | 20 to 50 | significantly reduced | 2.3 | 0.0251 | 0.2 | 13.4 |  |
| Cc1ccc2cccc(NC(=O)c3ccc(N(C)C)cc3)c2n1 [Compound C18, 4-N,N-Dimethylamino-N-(2-methylquinolin-8-yl)benzamide] | A (A represents a value greater than 50% cell rescue) | A (A represents a value greater than 50% cell rescue) | greater than 15% | significantly lowered | identical to lean mice | > 50 | significantly reduced | 35 | 0.38 | 0.9 | 53.4 | significantly improved pharmacokinetic properties |
